Experimental data reported in patent US20050065099A1, “Treatment of mitochondrial diseases” (priority 2003, published 2005).

The compounds below were run on dopaminergic neuronal cell line (assay: High glutamate-induced oxidative stress assay (HGOS)). Settings: Mus musculus; 30 mM glutamate, 16 hrs, Cell Tracker Green; read-out: EC50 for protection against HGOS cell injury and cell death.
Assay type: cell-based
Description: Protection against redox stress can be further evaluated in cell culture using high glutamate induced oxidative stress (HGOS) in mouse dopaminergic cell lines. The cytotoxic effect of glutamate is not due to excitotoxicity, as this cell line is devoid of inotropic glutamate receptors. Rather, the glutamate-induced toxicity of dopaminergic cells is associated with an inhibition of cystine transport which subsequently leads to depletion of intracellular glutathione (GSH) levels (Murphy T. H., et al. Neuron 2, 1547-1558, 1989), activation of neuronal 12-lipoxygenase (Li, Y. et al., Neuron 19,453-463, 1997), increased ROS production (Tan S. et al., J. Cell Biol. 141, 1423-1432, 1998) and elevated intracellular Ca^2+ (Li, Y. et al., see supra). Some molecules were measured for their ability to protect such cells against glutamate-induced stress and the assay is detailed in Examples.
This procedure was used to induce high glutamate-induced oxidative stress (HGOS) in a dopaminergic neuronal cell line. Using this assay the potency and efficacy of test articles against HGOS neuronal cell injury and cell death was established in a high throughput manner.
The cells were seeded into 96-well plates at a density of 2000 per well and left to grow for 72 hours in a 33° C. incubator with 5% CO2 in air atmosphere. The passage number of the cells for each assay experiment were no later than p11 in order to minimize experimental variation.
All compounds were dissolved in DMEM-No Glu containing 1 mM glucose, 30 mM glutamate and 1× Pen/Strep. DMEM-No Glu with 1 mM glucose and 1×P/S was used as the negative control, DMEM-No Glucose with 1 mM glucose, […] was used as a positive control and 100 μM Glutathione was added to the positive control as a standard. All of the procedures for this involving the making and dilution of compounds were performed using aseptic conditions and with minimal light.
The plates were removed from the incubator and examined under the microscope for morphological appearance and density. Using an aseptic technique and an 8-channel aspirator the media was carefully removed from the cells and replaced with 200 μl of 1×HBSS. This was done as quickly as possible to prevent the cells drying out. The plates were then placed in the humidified 37° C. incubators of the Biomek 2000 Side Loader. Four plates were washed at a time so as to minimize the time that the cells were sitting in 1×HBSS prior to addition of the compound test solution.
The Beckman Biomek workstations were used to load the compounds and controls from the mother plates onto the cell plates that were prewashed with HBSS under sterile conditions. The plates were incubated in the upper HTS incubator at 37° C. in 5% CO2 for exactly 16 hrs. The following day, using the Beckman Biomek workstations, the plates were removed from the incubator. Using Cell Tracker Addition, the compounds were removed from the plates, washed once with […] of pre-warmed 1×HBSS and then 100 μL of 5 μM Cell Tracker Green was added to each well. The plates were incubated at 37° C. for 30 min to allow the dye to enter the cell and be cleaved by the esterases. After washing the cells twice with prewarmed 1×HBSS, the plates were read with the 485 excitation; 538 emission filter pair on a Fluoroskan.
Compound Cc1c(O)cc2c(c1C)OC1(C)CCCC2C1 (stereo not shown) [5,6,9-Trimethyl-8-oxa-tricyclo[7.3.1.0^2,7]trideca-2,4,6-trien-4-ol] has an EC50 of no more than 5 µM. In the case of Cc1c(C)c2c(c(Br)c1O)CCC(C)(CCC(=O)O)O2 (stereo not shown) [3-(5-Bromo-6-hydroxy-2,7,8-trimethyl-chroman-2-yl)-propionic acid], the EC50 is reported as no more than 5 µM. Cc1c(O)c(C)c2c(c1C=O)OC(C)(C)CC2 [6-Hydroxy-2,2,5,7-tetramethyl-chroman-8-carbaldehyde] was tested, and the EC50 was no more than 5 µM. Compound Cc1c(C)c2c(c(C)c1O)CCC(C)(CO)O2 (stereo not shown) [2-Hydroxymethyl-2,5,7,8-tetramethyl-chroman-6-ol] has an EC50 of no more than 5 µM. Cc1c(C)c2c(c(CCO)c1O)CCC(C)(C)O2 [5-(2-Hydroxy-ethyl)-2,2,7,8-tetramethyl-chroman-6-ol] gave an EC50 of no more than 5 µM. Work on Cc1c(C)c2c(c(CC(CO)CO)c1O)CCC(C)(C)O2 [2-(6-Hydroxy-2,2,7,8-tetramethyl-chroman-5-ylmethyl)-propane-1,3-diol] yielded an EC50 of no more than 5 µM. Compound Cc1c(O)cc2c(c1C)OC(C)(CCCl)CC2 (stereo not shown) [2-(2-chloro-ethyl)-2,7,8-trimethyl-chroman-6-ol] has an EC50 of no more than 5 µM. COc1cccc2c(O)cc3c(c12)OC(C)(C)CC3 [10-Methoxy-2,2-dimethyl-3,4-dihydro-2H-benzo[h]chromen-6-ol] showed an EC50 of no more than 5 µM. For Cc1c(C)c2c(c(C)c1O)CCC(C)(C(=O)N1CCNCC1)O2 (stereo not shown) [(6-Hydroxy-2,5,7,8-tetramethyl-chroman-2-yl)-piperazin-1-yl-methanone], the EC50 was no more than 5 µM. For CC(C)=CCc1c(O)c(C)c(C)c2c1CCC(C)(CCCl)O2 (stereo not shown) [2-(2-Chloro-ethyl)-2,7,8-trimethyl-5-(3-methyl-but-2-enyl)-chroman-6-ol], the EC50 was no more than 5 µM. Cc1c(O)cc2c(c1C)OC(C)(CCCC1SC(=O)NC1=O)CC2 (stereo not shown) [5-[3-(6-Hydroxy-2,7,8-trimethyl-chroman-2-yl)-propyl]-thiazolidine-2,4-dione] was tested, and the EC50 was no more than 5 µM. For CC(=O)N(C)CC1(C)CCc2c(C)c(O)c(C)c(C)c2O1 (stereo not shown) [N-(6-Hydroxy-2,5,7,8-tetramethyl-chroman-2-ylmethyl)-N-methyl-acetamide], the EC50 was no more than 5 µM. With Cc1c(C)c2c(c(CCC(C)C)c1O)CCC(C)(C)O2 [2,2,7,8-Tetramethyl-5-(3-methyl-butyl)-chroman-6-ol] the EC50 was no more than 5 µM. Cc1c(C)c2c(c(CN3CCN(Cc4ccccc4)CC3)c1O)CCC(C)(CCCC(C)CCCC(C)CCCC(C)C)O2 (stereo not shown) [5-(4-Benzyl-piperazin-1-ylmethyl)-2,7,8-trimethyl-2-(4,8,12-trimethyl-tridecyl)-chroman-6-ol] gave an EC50 of no more than 5 µM. Cc1c(C)c2c(c(C)c1O)CCC(C)(COCC(=O)Nc1cccc(C(F)(F)F)c1)O2 (stereo not shown) [2-(6-Hydroxy-2,5,7,8-tetramethyl-chroman-2-ylmethoxy)-N-(3-trifluoromethyl-phenyl)-acetamide] was tested, and the EC50 was no more than 5 µM. For C#CC1(C)CCc2c(C)c(O)c(C)c(C)c2O1 (stereo not shown) [2-Ethynyl-2,5,7,8-tetramethyl-chroman-6-ol], the EC50 was no more than 5 µM. With Cc1c(C)c2c(c(C)c1O)C=CC(C)(C)O2 [2,2,5,7,8-Pentamethyl-2H-chromen-6-ol] the EC50 was no more than 5 µM. Cc1c(O)c(C)c([N+](=O)[O-])c2c1CCC(C)(C)O2 [2,2,5,7-Tetramethyl-8-nitro-chroman-6-ol] was tested, and the EC50 was no more than 5 µM. Compound Cc1c(C)c2c(c(CO)c1O)CCC(C)(C)O2 [5-Hydroxymethyl-2,2,7,8-tetramethyl-chroman-6-ol] has an EC50 of no more than 5 µM. Compound Cc1cc(O)c(C)c2c1OC(C)(C)CC2 [2,2,5,8-Tetramethyl-chroman-6-ol] has an EC50 of no more than 5 µM. Compound Cc1c(O)cc2c(c1C)OC(C)(CCCCl)CC2 (stereo not shown) [2-(3-Chloro-propyl)-2,7,8-trimethyl-chroman-6-ol] has an EC50 of no more than 5 µM. Cc1c(O)cc2c(c1C)OC(C)(C)CC2 [2,2,7,8-Tetramethyl-chroman-6-ol] showed an EC50 of no more than 5 µM. With Cc1c(C)c2c(c(C)c1O)CCC(C)(C(=N)N)O2 (stereo not shown) [6-Hydroxy-2,5,7,8-tetramethyl-chroman-2-carboxamidine] the EC50 was no more than 5 µM. Cc1c(C)c2c(c(C(C)O)c1O)CCC(C)(C)O2 (stereo not shown) [5-(1-Hydroxy-ethyl)-2,2,7,8-tetramethyl-chroman-6-ol] showed an EC50 of no more than 5 µM.

These compounds were tested on FRDA fibroblasts (assay: FRDA fibroblast assay for protection from oxidative stress). Settings: Homo sapiens, 24 h preincubation, 1 mM BSO, compared to untreated FRDA fibroblasts, read-out: EC50 for reduction of cell death in FRDA fibroblasts.
Assay type: cell-based
Description: A cellular assay using FRDA-patient derived fibroblasts (as described by Jauslin, M L et al, Human Molecular Genetics 11; 3055-3063 (2002)); is used to determine the cell protecting effect of the test compounds by analyzing survival of dermal fibroblasts taken from FRDA patients and unaffected normal donors under conditions of partial GSH depletion. Exposure of FRDA fibroblasts to BSO (L-buthionine (S,R)-sulfoximine) under conditions of restricted selenium causes depletion of cellular glutathione (GSH) and severe plasma membrane damage leading to cell death. Preincubation with the test compounds before the addition of BSO is used to determine if they can protect FRDA cells from BSO-mediated cell death.
Primary fibroblasts were derived from donors with a molecular diagnosis of FRDA and control donors with no mitochondrial disease. Lines F2, C2 and C3 were obtained from Coriell Cell Repositories (Camden, N.J., USA; catalog #'s GM04078, GM 08402 and GM08399, respectively). All cell types were diagnosed at the molecular level for intronic GAA triplet repeat length in the trataxin gene using a PCR-based method, according to methods known in the art. […] The cells were seeded in microtiter plates at a density of 4000 cells per 100 μl in growth medium consisting of 25% (v/v) M199 EBS and 64% (v/v) MEM EBS without phenol red (Bioconcept, Allschwil, Switzerland) supplemented with 10% (v/v) fetal calf serum (PAA Laboratories, Linz, Austria), 100 U/ml penicillin, 100 μg/ml streptomycin (PAA Laboratories, Linz, Austria), 10 μg/ml insulin (Sigma, Buchs, Switzerland), 10 μg/ml EGF (Sigma, Buchs, Switzerland), 10 μg/ml bFGF (PreproTech, Rocky Hill, N.J., USA) and 2 mM glutamine (Sigma, Buchs, Switzerland). The cells were incubated in the presence of the various test compounds for 24 h before addition of 1 mM BSO (L-buthionine (S,R)-sulfoximine).
Cell viability was measured after the first signs of toxicity appeared in the BSO-treated controls (typically after 16-48 h). The cells were stained for 60 min at room temperature in PBS with 1.2 μm calceinAM and 4 μm ethidium homodimer (Live/Dead assay, Molecular Probes, Eugene, Oreg., USA). Fluorescence intensity was measured with a Gemini Spectramax XS spectrofluorimeter (Molecular Devices, Sunnyvale, Calif., USA) using excitation and emission wavelengths of 485 and 525 nm, respectively.
For Cc1c(C)c2c(c(CSCC(NC(=O)CCC(N)C(=O)O)C(=O)NCC(=O)O)c1O)CCC(C)(CCCC(C)CCCC(C)CCCC(C)C)O2 (stereo not shown) [2-Amino-4-{1-(carboxymethyl-carbamoyl)-2-[6-hydroxy-2,7,8-trimethyl-2-(4,8,12-trimethyl-tridecyl)-chroman-5-ylmethylsulfanyl]-ethylcarbamoyl}-butyric acid], the EC50 was 0.01 to 6 µM. Work on CC(C)=CCCC(C)=CCCC(C)=CCCC1(C)CCc2cc(O)cc(C)c2O1 (stereo not shown) [Delta tocotrienol, 2,8-dimethyl-2-(4,8,12-trimethyl-trideca-3,7,11-trienyl)-chroman-6-ol] yielded an EC50 of 0.01 to 6 µM. Compound Cc1c(O)cc2c(c1C)OC(C)(CCCl)CC2 (stereo not shown) [2-(2-chloro-ethyl)-2,7,8-trimethyl-chroman-6-ol] has an EC50 of 0.01 to 6 µM. In the case of Cc1cc(O)cc2c1OC(C)(CCCC(C)CCCC(C)CCCC(C)C)CC2 (stereo not shown) [Delta tocopherol, 2,8-dimethyl-2-(4,8,12-trimethyl-tridecyl)-chroman-6-ol], the EC50 is reported as 0.01 to 6 µM. Work on CC(C)=CCc1c(O)c(C)c(C)c2c1CCC(C)(CCCl)O2 (stereo not shown) [2-(2-Chloro-ethyl)-2,7,8-trimethyl-5-(3-methyl-but-2-enyl)-chroman-6-ol] yielded an EC50 of 0.01 to 6 µM. Cc1c(O)cc2c(c1C)OC(C)(CCCC1SC(=O)NC1=O)CC2 (stereo not shown) [5-[3-(6-Hydroxy-2,7,8-trimethyl-chroman-2-yl)-propyl]-thiazolidine-2,4-dione] was tested, and the EC50 was 0.01 to 6 µM. Cc1c(C)c2c(c(CCC(C)C)c1O)CCC(C)(C)O2 [2,2,7,8-Tetramethyl-5-(3-methyl-butyl)-chroman-6-ol] showed an EC50 of 0.01 to 6 µM. Work on Cc1c(O)cc2c(c1C)OC(C)(CCCC(C)CCCC(C)CCCC(C)C)CC2 (stereo not shown) [Gamma-tocopherol, 2,7,8-trimethyl-2-(4,8,12-trimethyltridecyl)-6-chromanol] yielded an EC50 of 0.01 to 6 µM. In the case of CC(C)=CCCC(C)=CCCC(C)=CCCC1(C)CCc2cc(O)c(C)c(C)c2O1 (stereo not shown) [Gamma-tocotrienol, 2,7,8-trimethyl-2-(4,8,12-trimethyl-trideca-3,7,11-trienyl)-chroman-6-ol], the EC50 is reported as 0.01 to 6 µM. Cc1c(O)cc2c(c1C)OC(C)(CCC(=O)NC(CCC(=O)NC(CS)C(=O)NCC(=O)O)C(=O)O)CC2 (stereo not shown) [4-[1-(Carboxymethyl-carbamoyl)-2-mercapto-ethylcarbamoyl]-2-[3-(6-hydroxy-2,7,8-trimethyl-chroman-2-yl)-propionylamino]-butyric acid] was tested, and the EC50 was 0.01 to 6 µM.
